Details: Liquid, Vibrating tube method

CCCCCCCCCC [decane]
Details | mass density [kg/m3]
333.16 K, 13554 kPa | 711.7
333.16 K, 13566 kPa | 711.8
333.16 K, 13581 kPa | 711.8
333.16 K, 13900 kPa | 711.9
333.16 K, 14258 kPa | 712.3
333.16 K, 14275 kPa | 712.3
333.16 K, 14293 kPa | 712.4
333.16 K, 14310 kPa | 712.3
333.16 K, 14334 kPa | 712.3
333.16 K, 14348 kPa | 712.4
333.16 K, 14369 kPa | 712.4
333.16 K, 14389 kPa | 712.4
333.16 K, 14403 kPa | 712.4
333.16 K, 14421 kPa | 712.5
333.16 K, 14436 kPa | 712.4
333.16 K, 14457 kPa | 712.6
333.16 K, 14470 kPa | 712.5
333.16 K, 14484 kPa | 712.6
333.16 K, 14501 kPa | 712.6
333.16 K, 14514 kPa | 712.5
333.16 K, 14528 kPa | 712.6
333.16 K, 14543 kPa | 712.4
333.16 K, 14559 kPa | 712.6
333.16 K, 14581 kPa | 712.6
333.16 K, 14601 kPa | 712.6
333.16 K, 14623 kPa | 712.6
333.16 K, 14640 kPa | 712.6
333.16 K, 14660 kPa | 712.7
333.16 K, 14678 kPa | 712.6
333.16 K, 14696 kPa | 712.7
333.16 K, 14711 kPa | 712.7
333.16 K, 14728 kPa | 712.8
333.16 K, 14750 kPa | 712.8
333.16 K, 14770 kPa | 712.8
333.16 K, 14785 kPa | 712.7
333.16 K, 14808 kPa | 712.8
333.16 K, 14828 kPa | 712.8
333.16 K, 14846 kPa | 712.8
333.16 K, 14864 kPa | 712.9
333.16 K, 14881 kPa | 712.7
333.16 K, 14984 kPa | 712.9
333.16 K, 15187 kPa | 713
333.16 K, 15232 kPa | 713.1
333.16 K, 15248 kPa | 713.1
333.16 K, 15291 kPa | 713.1
333.16 K, 15313 kPa | 713.2
333.16 K, 15331 kPa | 713.3
333.16 K, 15356 kPa | 713.2
333.16 K, 15370 kPa | 713.2
333.16 K, 15519 kPa | 713.4
333.16 K, 15581 kPa | 713.3
333.16 K, 18702 kPa | 716
333.16 K, 18825 kPa | 715.9
333.16 K, 21785 kPa | 718.5
333.16 K, 21820 kPa | 718.6
333.16 K, 25349 kPa | 721.2
333.16 K, 25383 kPa | 721.2
333.16 K, 25434 kPa | 721.3
333.16 K, 25480 kPa | 721.3
333.16 K, 25520 kPa | 721.3
333.16 K, 25560 kPa | 721.3
333.16 K, 25612 kPa | 721.4
333.16 K, 25653 kPa | 721.5
333.16 K, 26114 kPa | 721.7
333.16 K, 26176 kPa | 721.8
333.16 K, 26222 kPa | 721.8
333.16 K, 26260 kPa | 721.9
333.16 K, 26304 kPa | 721.8
333.16 K, 26342 kPa | 721.9
333.16 K, 27466 kPa | 722.8
333.16 K, 27509 kPa | 722.8
333.16 K, 27558 kPa | 722.8
333.16 K, 27603 kPa | 722.9
333.16 K, 27660 kPa | 722.9
333.16 K, 27703 kPa | 722.9
333.16 K, 27755 kPa | 722.9
333.16 K, 27812 kPa | 723
333.16 K, 27849 kPa | 723.1
333.16 K, 27894 kPa | 723.1
333.16 K, 27945 kPa | 723
333.16 K, 27985 kPa | 723.2
333.16 K, 28031 kPa | 723.2
333.16 K, 28077 kPa | 723.1
333.16 K, 28117 kPa | 723.2
333.16 K, 28185 kPa | 723.3
333.16 K, 28218 kPa | 723.2
333.16 K, 28262 kPa | 723.3
333.16 K, 28293 kPa | 723.4
333.16 K, 28324 kPa | 723.5
333.16 K, 28354 kPa | 723.3
333.16 K, 28395 kPa | 723.5
333.16 K, 28436 kPa | 723.4
333.16 K, 28472 kPa | 723.5
333.16 K, 28508 kPa | 723.5
333.16 K, 28555 kPa | 723.6
333.16 K, 28586 kPa | 723.5
333.16 K, 29016 kPa | 723.9
333.16 K, 29059 kPa | 724
333.16 K, 29107 kPa | 724
333.16 K, 29157 kPa | 724.1
333.16 K, 29189 kPa | 724
333.16 K, 29233 kPa | 724
333.16 K, 29260 kPa | 724.2
333.16 K, 29300 kPa | 724.2
333.16 K, 29339 kPa | 724.2
333.16 K, 29378 kPa | 724.2
333.16 K, 29411 kPa | 724.2
333.16 K, 29456 kPa | 724.2
333.16 K, 29495 kPa | 724.1
333.16 K, 29541 kPa | 724.3
333.16 K, 29575 kPa | 724.4
333.16 K, 29625 kPa | 724.4
333.16 K, 29666 kPa | 724.3
333.16 K, 29700 kPa | 724.3
333.16 K, 29730 kPa | 724.6
333.16 K, 29759 kPa | 724.5
333.16 K, 29794 kPa | 724.6
333.17 K, 25689 kPa | 721.5
333.17 K, 25730 kPa | 721.5
333.17 K, 25766 kPa | 721.6
333.17 K, 25801 kPa | 721.5
333.17 K, 25849 kPa | 721.7
333.17 K, 25908 kPa | 721.7
333.17 K, 25950 kPa | 721.7
333.17 K, 25992 kPa | 721.7
333.17 K, 26034 kPa | 721.7
333.17 K, 26071 kPa | 721.8
333.17 K, 28623 kPa | 723.6
333.17 K, 28670 kPa | 723.7
333.17 K, 28702 kPa | 723.6
333.17 K, 28729 kPa | 723.8
333.17 K, 28761 kPa | 723.8
333.17 K, 28807 kPa | 723.7
333.17 K, 28849 kPa | 723.8
333.17 K, 28887 kPa | 723.7
333.17 K, 28930 kPa | 724
333.17 K, 28974 kPa | 723.9

From the NIST ThermoML archive (doi:10.1021/je800110r)
